{"source": "patent US20240329056A1", "about": "“COMPONENT ASSAY FOR ALZHEIMER'S DISEASE IN A LIVING SUBJECT” (CASSAVA SCIENCES, INC., priority 2021, published 2024)", "key": {"[1]": {"system": "cerebrospinal fluid biomarkers of Alzheimer's disease pathology, neurodegeneration and neuroinflammation", "experiment": "Phase 2a clinical trial, cerebrospinal fluid and plasma biomarkers", "type": "in vivo, human", "excerpt": "A small Phase 2a clinical trial that utilized a contemplated prognostic method along with other methodologies was first reported in the fall of 2019. The results of that trial were thereafter reported at Clinical Trials on Alzheimer's Disease (CTAD), December 4-7th, 2019 in San Diego, CA, and were published as Wang et al., J Prev Alzheimers Dis published 7 Feb. 2020. The use of the assay disclosed herein was neither shown nor discussed in that article.\n(§1) Briefly, the study included 13 mild-to-moderate Alzheimer's disease patients, age 50-85, Mini Mental State Exam≥16 and ≤24 with a cerebrospinal fluid total tau/Aβ42 ratio […]. A pharmaceutical composition containing 100 mg of simufilam (PTI-125) in an orally administered tablet were given to the patients twice daily for 28 consecutive days. The study was conducted at five sites in the U.S. under an Investigational New Drug (IND) application.\nConsistent with the drug's mechanism of action and preclinical data, the simufilam (PTI-125) reduced cerebrospinal fluid biomarkers of Alzheimer's disease pathology, neurodegeneration and neuroinflammation from baseline to Day 28.\nTotal tau, neurogranin, and neurofilament light chain decreased by 20%, 32% and 22%, respectively. Phospho-tau (pT181) decreased 34%, evidence that the compound suppresses tau hyperphosphorylation induced by Aβ42's signaling through α7-nicotinic acetylcholine receptor. Cerebrospinal fluid biomarkers of neuroinflammation (YKL-40 and inflammatory cytokines) decreased by 5-14%. Biomarker effects were similar in plasma.\nThis increase is consistent with the compound's 1,000-fold reduction of Aβ42's femtomolar binding affinity to α7-nicotinic acetylcholine receptor."}, "[2]": {"biological_target": "T1, filamin A (Homo sapiens, UniProt P21333)", "T1 construct": "endogenous in cells; host or cells: patients' lymphocytes", "T1 sequence (P21333 whole entry)": "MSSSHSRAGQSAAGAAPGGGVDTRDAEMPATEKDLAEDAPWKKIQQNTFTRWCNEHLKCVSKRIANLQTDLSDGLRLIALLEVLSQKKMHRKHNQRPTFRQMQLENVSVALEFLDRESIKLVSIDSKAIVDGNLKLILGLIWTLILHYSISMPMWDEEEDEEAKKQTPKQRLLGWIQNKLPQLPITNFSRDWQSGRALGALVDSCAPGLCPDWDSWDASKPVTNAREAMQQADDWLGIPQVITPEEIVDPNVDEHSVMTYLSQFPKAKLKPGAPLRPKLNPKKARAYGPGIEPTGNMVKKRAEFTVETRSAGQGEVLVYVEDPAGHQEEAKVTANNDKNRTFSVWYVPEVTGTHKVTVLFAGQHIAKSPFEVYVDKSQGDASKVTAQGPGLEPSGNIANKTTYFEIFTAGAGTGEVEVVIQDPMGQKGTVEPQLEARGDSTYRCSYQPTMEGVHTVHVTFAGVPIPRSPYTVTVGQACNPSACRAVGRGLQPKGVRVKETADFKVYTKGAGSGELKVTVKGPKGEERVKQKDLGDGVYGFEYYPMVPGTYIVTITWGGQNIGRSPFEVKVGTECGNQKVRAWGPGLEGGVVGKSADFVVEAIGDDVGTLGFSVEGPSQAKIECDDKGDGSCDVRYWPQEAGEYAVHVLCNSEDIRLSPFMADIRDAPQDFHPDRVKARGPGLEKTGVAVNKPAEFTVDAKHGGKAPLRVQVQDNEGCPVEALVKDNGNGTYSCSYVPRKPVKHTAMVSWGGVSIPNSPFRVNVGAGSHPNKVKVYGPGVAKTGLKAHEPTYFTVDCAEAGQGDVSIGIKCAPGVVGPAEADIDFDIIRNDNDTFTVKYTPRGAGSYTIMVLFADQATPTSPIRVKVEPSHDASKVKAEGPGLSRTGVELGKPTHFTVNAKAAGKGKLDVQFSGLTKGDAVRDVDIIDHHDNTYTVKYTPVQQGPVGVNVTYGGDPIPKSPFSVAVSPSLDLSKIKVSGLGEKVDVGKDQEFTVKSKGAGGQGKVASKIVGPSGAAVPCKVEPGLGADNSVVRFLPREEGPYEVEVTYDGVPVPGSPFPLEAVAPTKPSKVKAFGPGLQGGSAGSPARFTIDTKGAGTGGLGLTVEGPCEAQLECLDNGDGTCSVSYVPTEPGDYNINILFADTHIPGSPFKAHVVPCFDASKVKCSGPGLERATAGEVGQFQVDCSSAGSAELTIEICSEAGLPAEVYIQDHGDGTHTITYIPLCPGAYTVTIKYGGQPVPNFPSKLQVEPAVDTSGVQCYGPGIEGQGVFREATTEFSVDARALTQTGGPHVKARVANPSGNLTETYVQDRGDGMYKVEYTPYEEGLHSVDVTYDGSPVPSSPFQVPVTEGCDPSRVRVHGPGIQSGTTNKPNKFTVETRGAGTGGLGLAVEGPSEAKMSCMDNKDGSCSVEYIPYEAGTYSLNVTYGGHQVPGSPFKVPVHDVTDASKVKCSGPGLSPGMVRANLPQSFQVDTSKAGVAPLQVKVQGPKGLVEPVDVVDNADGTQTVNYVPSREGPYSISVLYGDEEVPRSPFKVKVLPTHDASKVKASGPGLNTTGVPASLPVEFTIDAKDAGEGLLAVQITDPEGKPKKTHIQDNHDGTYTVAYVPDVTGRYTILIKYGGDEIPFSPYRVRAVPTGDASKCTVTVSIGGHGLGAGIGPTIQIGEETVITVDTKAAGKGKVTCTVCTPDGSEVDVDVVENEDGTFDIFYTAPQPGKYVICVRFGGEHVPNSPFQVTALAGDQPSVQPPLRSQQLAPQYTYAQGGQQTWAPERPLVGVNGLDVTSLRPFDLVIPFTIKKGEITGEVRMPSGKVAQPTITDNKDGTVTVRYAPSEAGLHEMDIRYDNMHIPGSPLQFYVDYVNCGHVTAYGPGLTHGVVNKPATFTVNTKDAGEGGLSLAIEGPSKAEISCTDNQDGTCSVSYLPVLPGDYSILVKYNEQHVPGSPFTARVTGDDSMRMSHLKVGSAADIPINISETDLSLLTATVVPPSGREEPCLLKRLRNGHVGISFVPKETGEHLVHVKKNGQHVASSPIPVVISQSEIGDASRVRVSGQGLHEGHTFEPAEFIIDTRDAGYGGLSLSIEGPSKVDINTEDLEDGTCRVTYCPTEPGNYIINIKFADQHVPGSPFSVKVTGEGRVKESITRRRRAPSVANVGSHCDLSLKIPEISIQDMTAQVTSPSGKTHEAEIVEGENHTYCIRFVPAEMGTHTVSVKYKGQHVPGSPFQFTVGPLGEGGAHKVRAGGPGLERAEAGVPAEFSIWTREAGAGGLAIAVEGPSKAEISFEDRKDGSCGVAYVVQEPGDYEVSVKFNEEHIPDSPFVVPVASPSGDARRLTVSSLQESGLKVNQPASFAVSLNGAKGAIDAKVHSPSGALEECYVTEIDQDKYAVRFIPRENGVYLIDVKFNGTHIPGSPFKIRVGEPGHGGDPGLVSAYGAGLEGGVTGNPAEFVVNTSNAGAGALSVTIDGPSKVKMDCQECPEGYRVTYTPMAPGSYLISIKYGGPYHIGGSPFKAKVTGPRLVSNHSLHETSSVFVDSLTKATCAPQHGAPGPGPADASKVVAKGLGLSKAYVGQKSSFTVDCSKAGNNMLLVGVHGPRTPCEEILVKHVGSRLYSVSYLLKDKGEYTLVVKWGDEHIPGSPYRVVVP", "experiment": "Phase 2a trial, target engagement in lymphocytes: filamin A conformation", "type": "in vivo", "protocol": "as §1\n(§2) Biomarker reductions were at least p 0.001 by paired “t” test. Target engagement was shown in lymphocytes by a shift in filamin A's conformation from aberrant to native: 93% was aberrant on Day 1 vs. 40% on Day 28."}, "[3]": {"biological_target": "T2, filamin A linkages with α7-nicotinic acetylcholine receptor (Homo sapiens, UniProt P21333)", "T2 construct": "filamin A linkages with α7-nicotinic acetylcholine receptor and toll-like receptor 4; endogenous in cells; host or cells: patients' lymphocytes", "experiment": "Phase 2a trial, filamin A linkage with α7-nicotinic acetylcholine receptor", "type": "in vivo", "conditions": "after 28 days of treatment", "protocol": "as §1, §2"}, "[4]": {"biological_target": "T3, filamin A linkages with toll-like receptor 4 (Homo sapiens, UniProt P21333)", "T3 construct": "filamin A linkages with α7-nicotinic acetylcholine receptor and toll-like receptor 4; endogenous in cells; host or cells: patients' lymphocytes", "experiment": "Phase 2a trial, filamin A linkage with toll-like receptor 4", "type": "in vivo", "conditions": "after 28 days of treatment", "protocol": "as §1, §2"}, "[5]": {"system": "Aβ42 complexes with α7-nicotinic acetylcholine receptor", "experiment": "Phase 2a trial, Aβ42 complexes with α7-nicotinic acetylcholine receptor", "type": "in vivo, human", "conditions": "after 28 days of treatment", "protocol": "as §1, §2"}, "[6]": {"system": "Aβ42 complexes with CD14", "experiment": "Phase 2a trial, Aβ42 complexes with CD14", "type": "in vivo, human", "conditions": "after 28 days of treatment", "protocol": "as §1, §2"}, "[7]": {"experiment": "Phase 2a trial, plasma pharmacokinetics", "type": "in vivo, human", "protocol": "as §1"}, "[8]": {"experiment": "Phase 2a trial, safety and tolerability", "type": "in vivo, human", "conditions": "all patients, 100 mg twice daily for 28 days", "protocol": "as §1"}, "[9]": {"system": "about 90 kDa FLNA polypeptide fragment", "experiment": "Phase 2a trial, about 90 kDa FLNA polypeptide fragment in plasma", "type": "in vivo, human", "conditions": "group of 13 patients, P<0.01", "protocol": "FIG. 13 is a graph showing the amounts in arbitrary units of the about 90 kDa FLNA polypeptide fragment found in the plasma of 13 AD patients in a Phase 2a clinical trial who were treated with a medicament twice daily for 28 days and had their blood plasma assayed on days 0, 14 and 28 for the presence and amount of the about 90 kDa FLNA polypeptide fragment.\nas §1\nAn assay for the presence and amount of the about 90 kDa FLNA polypeptide fragment in the plasma of each patient was also separately determined on days 0, 14 and 28 of the trial. […] Those results are shown graphically in FIG. 13 and indicate that the treatment appeared to be effective and was in agreement with the more standard assays."}, "[10]": {"biological_target": "α7-nicotinic acetylcholine receptor (Homo sapiens, UniProt P36544)", "sequence (P36544 23-502)": "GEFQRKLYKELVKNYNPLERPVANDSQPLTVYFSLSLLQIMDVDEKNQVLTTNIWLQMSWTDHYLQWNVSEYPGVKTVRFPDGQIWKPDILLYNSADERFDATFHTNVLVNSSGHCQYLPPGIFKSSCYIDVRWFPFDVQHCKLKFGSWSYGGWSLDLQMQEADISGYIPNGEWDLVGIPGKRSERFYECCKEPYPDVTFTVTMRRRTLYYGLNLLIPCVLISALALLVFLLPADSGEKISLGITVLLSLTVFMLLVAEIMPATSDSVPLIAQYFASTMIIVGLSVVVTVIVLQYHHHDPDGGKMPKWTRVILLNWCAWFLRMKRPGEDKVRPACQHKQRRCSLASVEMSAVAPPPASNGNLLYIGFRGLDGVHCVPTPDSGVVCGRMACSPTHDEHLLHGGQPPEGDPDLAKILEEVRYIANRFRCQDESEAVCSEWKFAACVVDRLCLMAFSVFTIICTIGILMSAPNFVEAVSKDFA", "conditions": "cited from earlier work"}, "[11]": {"biological_target": "FLNA association with toll-like receptor 4 (TLR4) (Homo sapiens, UniProt P21333)", "conditions": "Wang et al., J. Neurosci. 2012; cited from earlier work"}, "[12]": {"system": "cytokine release", "conditions": "Wang et al., J. Neurosci. 2012; cited from earlier work"}, "[13]": {"system": "prefrontal cortex and hippocampus brain slices", "experiment": "Ex vivo organotypic brain slice culture with Aβ42 exposure", "type": "cell-based", "conditions": "rat brain slices, serum-deprived, 100 μM Aβ1-42", "protocol": "We hypothesize that the 90-kDa pS^2152FLNA fragment is derived from degenerated and ruptured neurons in the brain.\nUsing two brain regions known to be vulnerable to AD damage, 200-μm sections of prefrontal cortex and hippocampus were prepared from 10-week-old rats. These brain slices were cultured as described previously (Wang et al., above) for 4 days to permit recovery of slice preparation damage. These slices were then serum-deprived and incubated with 100 μM Aβ1-42 (Aβ42).\nThe presence of the 90-kDa pS^2152-FLNA fragments and pS^2152-FLNA protein, as well as other biomarkers that reflect neuronal destruction, nitrated tau (nY^29-tau) and glial damage [truncated glial fibrillary acidic protein (GFAP)] in the culture medium were assessed by Western blotting. The specificity of Aβ42 was defined by Aβ421, an intrareversal peptide.\nThe 90-kDa pS^2152-FLNA fragment, but not full-length (280-kDa) pS^2152-FLNA protein, appears in the medium starting at 4 hours post-Aβ42 addition and steadily increases over time. […] In addition, full-length GFAP, followed by its truncated form, appears early following Aβ1-42 exposure."}, "[14]": {"conditions": "cerebrospinal fluid, baseline to Day 28, 100 mg twice daily"}}}
{"molecule": "CN1CCC2(CC1)NCC(=O)N2Cc1ccccc1", "note": "[simufilam]", "values": [{"measurement": "Biomarker response", "setting": "[1]; 13 mild-to-moderate AD patients, 100 mg oral tablet twice daily for 28 days, baseline to Day 28", "result": "All patients showed a biomarker response"}, {"measurement": "Aβ42 change", "setting": "[1]; baseline to Day 28, 100 mg twice daily", "result": "increased slightly"}, {"measurement": "Cerebrospinal fluid biomarkers of neuroinflammation (YKL-40 and inflammatory cytokines) decrease", "setting": "[1]; [14]", "result": "5-14%"}, {"measurement": "Neurofilament light chain decrease", "setting": "[1]; [14]", "result": 22, "unit": "%"}, {"measurement": "Neurogranin decrease", "setting": "[1]; [14]", "result": 32, "unit": "%"}, {"measurement": "Phospho-tau (pT181) decrease", "setting": "[1]; [14]", "result": 34, "unit": "%"}, {"measurement": "Total tau decrease", "setting": "[1]; [14]", "result": 20, "unit": "%"}, {"measurement": "Biomarker effects in plasma", "setting": "[1]; plasma compared with cerebrospinal fluid", "result": "similar"}, {"measurement": "Aberrant filamin A conformation", "setting": "[2]; Day 1", "result": 93, "unit": "%"}, {"measurement": "Aberrant filamin A conformation", "setting": "[2]; Day 28", "result": 40, "unit": "%"}, {"measurement": "Filamin A linkages with α7-nicotinic acetylcholine receptor", "setting": "[3]", "result": "significantly reduced"}, {"measurement": "Filamin A linkages with toll-like receptor 4", "setting": "[4]", "result": "significantly reduced"}, {"measurement": "Aβ42 complexes with α7-nicotinic acetylcholine receptor", "setting": "[5]", "result": "significantly reduced"}, {"measurement": "Aβ42 complexes with CD14", "setting": "[6]", "result": "significantly reduced"}, {"measurement": "Drug accumulation", "setting": "[7]; Day 28 vs. Day 1", "result": "approximately 30%"}, {"measurement": "half-life", "setting": "[7]; human, plasma, AD patients, 100 mg oral twice daily", "result": 4.5, "unit": "h"}, {"measurement": "Safety and tolerability", "setting": "[8]", "result": "safe and well-tolerated"}, {"measurement": "Amount of the 90 kDa FLNA polypeptide fragment in the plasma", "setting": "[9]; 14 days into the trial", "result": "decrease"}, {"measurement": "Amount of the 90 kDa FLNA polypeptide fragment in the plasma", "setting": "[9]; 28 days into the trial", "result": "decrease"}, {"measurement": "Reduction of Aβ42's femtomolar binding affinity to α7-nicotinic acetylcholine receptor", "setting": "[10]", "result": "1,000 fold"}, {"measurement": "FLNA association with toll-like receptor 4 (TLR4)", "setting": "[11]", "result": "reducing"}, {"measurement": "Cytokine release", "setting": "[12]", "result": "preventing"}]}
{"molecule": "Aβ42: amyloid-beta peptide generated by cleavage of amyloid precursor protein; used to induce AD-like damage in brain slices", "values": [{"measurement": "Time of first appearance of 90-kDa pS2152-FLNA fragment in the medium post-Aβ42 addition", "setting": "[13]", "result": 4, "unit": "hours"}]}
